Source: ChEMBL document CHEMBL1671682, “Inhibition of human immunodeficiency virus type 1 by triciribine involves the accessory protein nef” (Antimicrob Agents Chemother, 2010)

Key:
[1] = system: Human immunodeficiency virus 1; assay: Antiviral activity against Human immunodeficiency virus 1 D1 harboring Tyr127His mutation in nef protein infecting in CEM-SS cells assessed as inhibition of viral Reverse transcriptase by [3H]TTP incorporation assay
[2] = system: Human immunodeficiency virus 1; assay: Antiviral activity against Human immunodeficiency virus 1 H10 harboring Tyr127His, Gly140Glu, Glu149Lys, Asp174Asn and Arg178Lys mutations in nef protein infecting in CEM-SS cells assessed as inhibition of viral Reverse transcriptase by [3H]TTP incorporation assay
[3] = system: Simian immunodeficiency virus; assay: Antiviral activity against simian immunodeficiency virus 69R infected in phytohemagglutininin and interleukin-2-stimulated PBMC assessed as inhibition of viral Reverse transcriptase by [3H]TTP incorporation assay; assay type: functional, organism-based
[4] = system: Human immunodeficiency virus 2; assay: Antiviral activity against Human immunodeficiency virus 2 CDC 310342 infected in phytohemagglutininin and interleukin-2-stimulated PBMC assessed as inhibition of viral Reverse transcriptase by [3H]TTP incorporation assay; assay type: functional, organism-based
PBMC [5] = assay: Cytotoxicity against human PBMC assessed as cell viability at 10 uM by MTS assay; assay type: cell-based
[6] = Cytotoxicity against human AA5 cells by MTS assay; assay type: cell-based
[7] = system: Human immunodeficiency virus 2; assay: Antiviral activity against Human immunodeficiency virus 2 CDC 310319 infected in phytohemagglutininin and interleukin-2-stimulated PBMC assessed as inhibition of viral Reverse transcriptase by [3H]TTP incorporation assay; assay type: functional, organism-based
PBMC [8] = assay: Cytotoxicity against human PBMC assessed as cell viability at 1 uM by MTS assay; assay type: cell-based
CEM-SS = assay: Cytotoxicity against human CEM-SS cells by MTS assay; assay type: functional, cell-based
[9] = system: Simian immunodeficiency virus; assay: Antiviral activity against simian immunodeficiency virus Mac251 infected in phytohemagglutininin and interleukin-2-stimulated PBMC assessed as inhibition of viral Reverse transcriptase by [3H]TTP incorporation assay; assay type: functional, organism-based
H9 = assay: Cytotoxicity against human H9 cells by MTS assay; assay type: functional, cell-based
[10] = system: Human immunodeficiency virus 1; assay: Antiviral activity against Human immunodeficiency virus 1 A7 harboring Tyr127His mutation in nef protein infecting in CEM-SS cells assessed as inhibition of viral Reverse transcriptase by [3H]TTP incorporation assay
[11] = system: Human immunodeficiency virus 1; assay: Antiviral activity against Human immunodeficiency virus 1 A12 harboring Tyr127His, Asp174Asn and Arg178Lys mutations in nef protein infecting in CEM-SS cells assessed as inhibition of viral Reverse transcriptase by [3H]TTP incorporation assay

For `Cc1cn([C@H]2C[C@H](N=[N+]=[N-])[C@@H](CO)O2)c(=O)[nH]c1=O` [ZIDOVUDINE], the IC50 [1] was 15 nM, the IC50 [2] was 40 nM and the IC50 [3] was 0.5 nM. For the same compound, the IC50 [4] was 1 nM, the Activity (PBMC [5]) was “Non-toxic” and the IC50 [6] was over 100 nM. For the same compound, the IC50 [7] was 0.2 nM, the Activity (PBMC [8]) was “Non-toxic” and the IC50 (CEM-SS) was over 100 nM. The IC50 [9] was 10 nM, the IC50 (H9) was over 100 nM and the IC50 [10] was 28 nM. For the same compound, the IC50 [11] was 80 nM.
